Source: doi:10.1101/2024.08.06.606911v7 (biorxiv, 2025)

Target: PTEN (GST-PTEN; Myc-PTEN) (Homo sapiens, UniProt P60484)
Experiment: SPR, BIACORE […], PTEN immobilised on CM5 chip
Format: binding

Sequence of PTEN (GST-PTEN; Myc-PTEN) (P60484 whole entry): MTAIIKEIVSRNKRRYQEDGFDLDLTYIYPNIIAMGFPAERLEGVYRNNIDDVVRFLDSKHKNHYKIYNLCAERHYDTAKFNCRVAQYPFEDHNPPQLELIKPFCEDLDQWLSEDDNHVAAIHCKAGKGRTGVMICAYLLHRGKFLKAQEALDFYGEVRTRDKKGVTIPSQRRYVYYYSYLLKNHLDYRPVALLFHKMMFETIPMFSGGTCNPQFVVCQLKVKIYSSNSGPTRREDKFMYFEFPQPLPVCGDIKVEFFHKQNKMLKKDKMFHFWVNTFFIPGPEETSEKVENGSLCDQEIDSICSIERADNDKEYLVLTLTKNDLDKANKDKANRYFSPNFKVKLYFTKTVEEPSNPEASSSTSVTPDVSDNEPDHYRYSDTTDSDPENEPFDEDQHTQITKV

- Kd: 230 µM
SMILES: C[C@@H]1O[C@@H](O[C@@H]2[C@@H](O)[C@H](OCCc3ccc(O)c(O)c3)O[C@H](CO[C@@H]3O[C@H](CO)[C@@H](O)[C@H](O)[C@H]3O)[C@H]2OC(=O)/C=C/c2ccc(O)c(O)c2)[C@H](O)[C@H](O)[C@H]1O [Echinacoside]
